From patent publication US20130213885A1, “FORWARD OSMOSIS SYSTEM AND PROCESS” (KING ABDULLAH UNIVERSITY OF SCIENCE AND TECHNOLOGY, priority 2012, published 2013)

Assay: Laboratory-scale forward osmosis performance test (water flux, salt flux)
Conditions: AL-DS
Description: Prior to use, CTA1 and CTA2 membranes were soaked in water for 30 minutes, and other membranes were soaked in isopropanol for 30 minutes, followed by a soaking in deionized (DI) water for 10 hours.
The specially designed cross-flow membrane cell (301) has a channel (302, 303) on each side of the membrane (304), which allows the feed solution (305) and draw solution (306) to flow through separately. Each channel has dimensions of 2.8 mm, 50 mm, and 100 mm for channel height, length, and width, respectively. Co-current flow was used with a flow rate in each channel that was controlled by a peristaltic pump (307, 308) and a flow meter (309, 310). The cross-flow rates for the feed and draw solution were both maintained at […]. A heat exchanger (311) was used to maintain the feed solution (305) and draw solution (306) at 23° C. A stirrer (318) on the feed side was also used. A weighing scale (312) connected to a computer (313) was used to monitor the weight of water permeating through the membrane from the feed to the draw side, from which the water flux was calculated. A conductivity meter (314) in the feed side was used to determine the salt concentration and thus the salt flux. A draw side conductivity meter (315) also exists to take measurements on the draw side. The laboratory scale unit (300) also comprises a feed-side thermistor (316) and a draw-side thermistor (317).

For [Cl-].[Na+] [NaCl, sodium chloride], which “water flux relative to sodium lignin sulfonate as draw solute” value (CTA1 and CTA2 membranes, feed deionized water, different osmotic pressures) is on record?
Its value is “doubles”.

And the “salt flux relative to sodium lignin sulfonate as draw solute” value (CTA1 membrane, feed deionized water)?
Its value is “about four times”.

And the “salt flux relative to sodium lignin sulfonate as draw solute” value (CTA2 membrane, feed deionized water)?
Its value is “about the same range”.

What about the “water flux, relatively stable stage” value (RO1 membrane, draw solute at 84 bar, feed DI, after first 10 minutes) of the same compound?
Its value is “around 4 LMH”.
